How the values were obtained:
Type in all cases: biochemical
[1] = test system: Dopamine uptake (3H-dopamine, corpus striatum synaptosomes); experiment: Inhibition of dopamine uptake in rat brain synaptosomes (corpus striatum); details: for IC50: rat corpus striatum synaptosomes, 3H-dopamine, 37° C., read-out: Inhibition of neurotransmitter uptake in synaptosomes, Dopamine IC 50
Text: (§1) The mode of action of a group of therapeutically frequently used antidepressants (for example tricyclic antidepressants) include the inhibition of the neuronal uptake of transmitter substances (norepinephrine, dopamine, serotonin). This property is utilized in biological test models to characterize potential antidepressants.
(§2) The following method was used: Inhibition of neurotransmitter uptake in rat brain synaptosomes
(§3) Hippocampus, corpus striatum and cortex of rat brains were dissected out and homogenized in 0.32M sucrose solution. Differential centrifugation gave synaptosomes which were suspended in buffer solution. Synaptosomes are capable of actively taking up added neurotransmitter substances (for example norepinephrine, dopamine, serotonin) from the surrounding medium. With the aid of uptake inhibitors it is possible to counteract this process to a degree which depends on the concentration. The synaptosomes were mixed with the test substances in various concentrations and then incubated at 37° C. with ^3 H-norepinephrine (hippocampus), ^3 H-dopamine (corpus striatum) and ^3 H-serotonin (cortex). The substrate concentration was about […]. The uptake was determined by dilution with ice-cold buffer solution; thereafter the synaptosomes were separated off by centrifugation, and the ^3 H activity was measured in the sediment. A blank value was determined by incubating at 0° C.
(§4) The median inhibitory concentration (IC 50) was calculated from the inhibitor values found for the various inhibitor concentrations by comparison with the blank test by linear regression following logit-log conversion.

[2] = test system: Norepinephrine uptake (3H-norepinephrine, hippocampus synaptosomes); experiment: Inhibition of norepinephrine uptake in rat brain synaptosomes (hippocampus); details: for IC50: rat hippocampus synaptosomes, 3H-norepinephrine, 37° C., read-out: Inhibition of neurotransmitter uptake in synaptosomes, Norepinephrine IC 50
Text: as §1, §2, §3, §4

[3] = test system: Serotonin uptake (3H-serotonin, cortex synaptosomes); experiment: Inhibition of serotonin uptake in rat brain synaptosomes (cortex); details: 37° C., read-out: Inhibition of neurotransmitter uptake in synaptosomes, Serotonin IC 50
Text: as §1, §2, §3, §4

In the case of `CN1CC[C@@H](c2ccccc2)[C@H]1/C=C/c1ccccc1` (relative stereo) [Example 1 cis, cis-3-phenyl-2-trans-styryl-N-methylpyrrolidine], the IC50 [1] is reported as 120 nM, the IC50 [2] is reported as 29 nM and the IC50 [3] is reported as greater than 1000 nM.

For `CCN1CC[C@@H](c2ccccc2)[C@@H]1/C=C/c1ccccc1` (relative stereo) [Example 2 trans, trans-3-phenyl-2-trans-styryl-N-ethylpyrrolidine], the IC50 [1] was 23 nM, the “potency of inhibition of noradrenaline uptake compared with imipramine, in words” value [2] was “appreciably exceeded by the compounds according to the invention” and the IC50 [2] was 5.5 nM. For the same molecule, the IC50 [3] was greater than 1000 nM.

`CCN1CC[C@@H](c2ccccc2)[C@H]1/C=C/c1ccccc1` (relative stereo) [Example 2 cis, cis-3-phenyl-2-trans-styryl-N-ethylpyrrolidine] was tested, and the IC50 [1] was 180 nM, the IC50 [2] was 43 nM and the IC50 [3] was greater than 1000 nM.

Molecule `CCCN1CC[C@@H](c2ccccc2)[C@@H]1/C=C/c1ccccc1` (relative stereo) [Example 3 trans, trans-3-phenyl-2-trans-styryl-N-n-propylpyrrolidine] has an IC50 [1] of 400 nM, an IC50 [2] of 160 nM and an IC50 [3] greater than 1000 nM.

In the case of `CN(C)CCCN1c2ccccc2CCc2ccccc21` [Imipramine, reference compound], the “inhibition of dopamine uptake, in words” value ([1]; qualitative statement) is reported as “not possessed by imipramine”, the IC50 [1] is reported as greater than 1000 nM and the IC50 [2] is reported as 14 nM. The IC50 [3] was 130 nM.

In the case of `CN1CC[C@@H](c2ccccc2)[C@@H]1/C=C/c1ccccc1` (relative stereo) [Example 1 trans, trans-3-phenyl-2-trans-styryl-N-methylpyrrolidine], the IC50 [1] is reported as 92 nM, the “potency of inhibition of noradrenaline uptake compared with imipramine, in words” value [2] is reported as “appreciably exceeded by the compounds according to the invention” and the IC50 [2] is reported as 7.3 nM. The IC50 [3] was greater than 1000 nM.

In the case of `CCCN1CC[C@@H](c2ccccc2)[C@H]1/C=C/c1ccccc1` (relative stereo) [Example 3 cis, cis-3-phenyl-2-trans-styryl-N-n-propylpyrrolidine], the IC50 [3] is reported as greater than 1000 nM.

— patent US4824862A, “3-phenyl-2-styrylpyrrolidines, preparation and use thereof” (BASF Aktiengesellschaft, priority 1987, dated 1989)
